Data as given in patent publication US7956077B2, “2-{-3,′2-(phenyl)-oxazol-4-ylmethoxyl-cyclohexyl methoxy}-propionic acid derivatives used as peroxisome proliferator-activated receptor (PPAR) ligands for the treatment of hyperlipidemia and diabetes” (Sanofi-Aventis Deutschland GmbH, priority 2004, dated 2011).

Columns and labels:
human PPARalpha = target: T1, human PPARalpha (Homo sapiens, UniProt Q07869); experiment: Cellular PPARalpha assay (stably transfected HEK luciferase reporter cell line); assay type: cell-based; conditions: PPARalpha reporter cell line (HEK, GR-GAL4-humanPPARalpha-LBD), 24 h incubation
T1 construct: human PPARalpha receptor (amino acids S167-Y468); expressed in transfected cells; host or cells: HEK cells, stably transfected (pcDNA3 construct)
T1 sequence (Q07869 167-468): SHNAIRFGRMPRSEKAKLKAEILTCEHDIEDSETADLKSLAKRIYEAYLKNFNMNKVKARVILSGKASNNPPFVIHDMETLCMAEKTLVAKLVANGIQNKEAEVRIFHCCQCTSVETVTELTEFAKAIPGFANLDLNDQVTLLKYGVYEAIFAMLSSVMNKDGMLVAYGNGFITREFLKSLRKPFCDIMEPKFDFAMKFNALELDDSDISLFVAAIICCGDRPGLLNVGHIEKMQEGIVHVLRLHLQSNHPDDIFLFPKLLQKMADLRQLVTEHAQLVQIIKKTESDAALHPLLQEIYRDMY
Procedure: Determination of EC50 Values of PPAR Agonists in the Cellular PPARalpha Assay
The potency of substances which bind to human PPARalpha and activate it in an agonistic manner is analyzed using a stably transfected HEK cell line (HEK=human embryo kidney) which is referred to here as PPARalpha reporter cell line. It contains two genetic elements, a luciferase reporter element (pdeltaM-GAL4-Luc-Zeo) and a PPARalpha fusion protein (GR-GAL4-humanPPARalpha-LBD) which mediates expression of the luciferase reporter element depending on a PPARalpha ligand. The stably and constitutively expressed fusion protein GR-GAL4-humanPPARalpha-LBD binds in the cell nucleus of the PPARalpha reporter cell line via the GAL4 protein portion to the GAL4 DNA binding motifs 5′-upstream of the luciferase reporter element which is stably integrated in the genome of the cell line. There is only little expression of the luciferase reporter gene without addition of a PPARalpha ligand if fatty acid-depleted fetal calf serum (cs-FCS) is used in the assay. PPARalpha ligands bind and activate the PPARalpha fusion protein and thereby bring about expression of the luciferase reporter gene. The luciferase which is formed can be detected by means of chemiluminescence via an appropriate substrate.
Construction of the Cell Line
The PPARalpha reporter cell line was prepared in two steps. Firstly, the luciferase reporter element was constructed and stably transfected into HEK cells. For this purpose, five binding sites of the yeast transcription factor GAL4 (in each case 5′-CGGAGTACTGTCCTCCGAG-3′) were cloned in 5′-upstream of a 68 bp-long minimal MMTV promoter (Genbank Accession # V01175). The minimal MMTV promoter section contains a CCAAT box and a TATA element in order to enable efficient transcription by RNA polymerase II. The cloning and sequencing of the GAL4-MMTV construct took place in analogy to the description of Sambrook J. et. al. (Molecular cloning, Cold Spring Harbor Laboratory Press, 1989). Then the complete Photinus pyralis luciferase gene (Genbank Accession # M15077) was cloned in 3′-downstream of the GAL4-MMTV element. After sequencing, the luciferase reporter element consisting of five GAL4 binding sites, MMTV promoter and luciferase gene was subcloned into a plasmid which confers zeozin resistance in order to obtain the plasmid pdeltaM-GAL4-Luc-Zeo. This vector was transfected into HEK cells in accordance with the statements in Ausubel, F. M. et al. (Current protocols in molecular biology, Vol. 1-3, John Wiley & Sons, Inc., 1995).
In a second step, the PPARalpha fusion protein (GR-GAL4-humanPPARalpha-LBD) was introduced into the stable cell clone described. For this purpose, initially the cDNA coding for the N-terminal 76 amino acids of the glucocorticoid receptor (Genbank Accession # P04150) was linked to the cDNA section coding for amino acids 1-147 of the yeast transcription factor GAL4 (Genbank Accession # P04386). The cDNA of the ligand-binding domain of the human PPARalpha receptor (amino acids S167-Y468; Genbank Accession # S74349) was cloned in at the 3′ end of this GR-GAL4 construct. The fusion construct prepared in this way (GR-GAL4-humanPPARalpha-LBD) was subcloned into the plasmid pcDNA3 (from Invitrogen) in order to enable constitutive expression therein by the cytomegalovirus promoter. This plasmid was linearized with a restriction endonuclease and stably transfected into the previously described cell clone containing the luciferase reporter element. The finished PPARalpha reporter cell line which contains a luciferase reporter element and constitutively expresses the PPARalpha fusion protein (GR-GAL4-humanPPARalpha-LBD) was isolated by selection with zeozin (0.5 mg/ml) and G418 (0.5 mg/ml).
The activity of PPARalpha agonists is determined in a 3-day assay which is described below: […]

human PPARgamma = target: T2, human PPARgamma (Homo sapiens, UniProt P37231); experiment: Cellular PPARgamma assay (transiently transfected HEK cells, luciferase reporter); assay type: cell-based; conditions: HEK cells transiently transfected with GAL4-humanPPARgammaLBD, 48 h incubation
T2 construct: human PPARgamma receptor (amino acids 1152-Y475); expressed in transfected cells; host or cells: HEK cells, transiently transfected with pcDNA3-GAL4-humanPPARgammaLBD
T2 sequence (P37231 182-477 isoform P37231-2 limits assumed): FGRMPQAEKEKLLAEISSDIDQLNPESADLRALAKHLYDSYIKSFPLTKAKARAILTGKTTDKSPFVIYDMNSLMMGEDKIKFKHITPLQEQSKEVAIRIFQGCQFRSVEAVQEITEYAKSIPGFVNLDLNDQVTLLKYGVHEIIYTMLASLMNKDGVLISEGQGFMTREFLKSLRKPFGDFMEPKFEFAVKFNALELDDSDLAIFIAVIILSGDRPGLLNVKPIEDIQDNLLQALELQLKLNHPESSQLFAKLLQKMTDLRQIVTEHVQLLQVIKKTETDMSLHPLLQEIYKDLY
Source text: Determination of EC50 Values of PPAR Agonists in the Cellular PPARgamma Assay
A transient transfection system is employed to determine the cellular PPARgamma activity of PPAR agonists. It is based on the use of a luciferase reporter plasmid (pGL3basic-5×GAL4-TK) and of a PPARgamma expression plasmid (pcDNA3-GAL4-humanPPARgammaLBD). Both plasmids are transiently transfected into human mbryonic kidney cells (HEK cells). There is then expression in these cells of the usion protein GAL4-humanPPARgammaLBD which binds to the GAL4 binding sites of he reporter plasmid. In the presence of a PPARgamma-active ligand, the activated usion protein GAL4-humanPPARgammaLBD induces expression of the luciferase reporter gene, which can be detected in the form of a chemiluminescence signal after addition of a luciferase substrate. As a difference from the stably transfected PPARalpha reporter cell line, in the cellular PPARgamma assay the two components (luciferase reporter plasmid and PPARgamma expression plasmid) are transiently transfected into HEK cells because stable and permanent expression of the PPARgamma fusion protein is cytotoxic.
Construction of the Plasmids
The luciferase reporter plasmid pGL3basic-5×GAL4-TK is based on the vector pGL3basic from Promega. The reporter plasmid is prepared by cloning five binding sites of the yeast transcription factor GAL4 (each binding site with the sequence 5′-CTCGGAGGACAGTACTCCG-3′), together with a 160 bp-long thymidine kinase promoter section (Genbank Accession # AF027128) 5′-upstream into pGL3basic. 3′-downstream of the thymidine kinase promoter is the complete luciferase gene from Photinus pyralis (Genbank Accession # M15077), which is already a constituent of the plasmid pGL3basic used. The cloning and sequencing of the reporter plasmid pGL3basic-5×GAL4-TK took place in analogy to the description in Sambrook J. et. al. (Molecular cloning, Cold Spring Harbor Laboratory Press, 1989).
The PPARgamma expression plasmid pcDNA3-GAL4-humanPPARgammaLBD was prepared by first cloning the cDNA coding for amino acids 1-147 of the yeast transcription factor GAL4 (Genbank Accession # P04386) into the plasmid pcDNA3 (from Invitrogen) 3′-downstream of the cytomegalovirus promoter. Subsequently, the cDNA of the ligand-binding domain (LBD) of the human PPARgamma receptor (amino acids 1152-Y475; Accession # g1480099) 3′-downstream of the GAL4 DNA binding domain was cloned. Cloning and sequencing of the PPARgamma expression plasmid pcDNA3-GAL4-humanPPARgammaLBD again took place in analogy to the description in Sambrook J. et. al. (Molecular cloning, Cold Spring Harbor Laboratory Press, 1989). Besides the luciferase reporter plasmid pGL3basic-5×GAL4-TK and the PPARgamma expression plasmid pcDNA3-GAL4-humanPPARgammaLBD, also used for the cellular PPARgamma assay are the reference plasmid pRL-CMV (from Promega) and the plasmid pBluescript SK(+) from Stratagene. All four plasmids were prepared using a plasmid preparation kit from Qiagen, which ensured a plasmid quality with a minimal endotoxin content, before transfection into HEK cells.
The activity of PPARgamma agonists is determined in a 4-day assay which is described below. Before the transfection, HEK cells are cultivated in DMEM medium (#41965-039, Invitrogen) which is mixed with the following additions: 10% FCS (#16000-044, Invitrogen), 1% penicillin-streptomycin solution (#15140-122, Invitrogen) and 2 mM L-glutamine (#25030-024, Invitrogen).
Firstly, solution A, a transfection mixture which contains all four plasmids previously described in addition to DMEM medium, is prepared. […]

Structure (SMILES) | EC50 (human PPARalpha) [nM] | EC50 (human PPARgamma) [nM]
Cc1oc(-c2ccc3ccccc3c2)nc1CO[C@H]1CCC[C@@H](COC(C)(Cc2ccccc2)C(=O)O)C1 (mixture of isomers) [Example 21, 2-Methyl-2-{(1R,3S)-3-[5-methyl-2-(naphth-2-yl)oxazol-4-ylmethoxy]-cyclohexyimethoxy}-3-phenylpropionic acid] | 5.8 | 600
Cc1oc(-c2ccc(F)cc2)nc1COC1CCCC(COC(C)(C)C(=O)O)C1 (stereo not drawn) [**] | 4.5 | > 10000
CCc1oc(-c2cccc(OC)c2)nc1CO[C@H]1CCC[C@@H](COC(C)(C)C(=O)O)C1 [Example 1, 2-{(1R,3S)-3-[5-ethyl-2-(3-methoxyphenyl)oxazol-4-ylmethoxy]cyclohexylmethoxy}-2-methylpropionic acid] | 45 | 930
CCc1oc(-c2ccc(C)cc2)nc1CO[C@H]1CCC[C@@H](COC(C)(C)C(=O)O)C1 [Example 2, 2-[(1R,3S)-3-(5-Ethyl-2-p-tolyloxazol-4-ylmethoxy)cyclohexylmethoxy]-2-methylpropionic acid] | 3.5 | 2900
CCc1oc(-c2ccc(CC(C)C)cc2)nc1CO[C@H]1CCC[C@@H](COC(C)(C)C(=O)O)C1 [Example 3, 2-{(1R,3S)-3-[5-Ethyl-2-(4-isobutylphenyl)-oxazol-4-ylmethoxy]cyclohexylmethoxy}-2-methylpropionic acid] | 19 | 670
CCc1oc(-c2ccc3ccccc3c2)nc1CO[C@H]1CCC[C@@H](COC(C)(C)C(=O)O)C1 [Example 4, 2-{(1R,3S)-3-[5-Ethyl-2-(napth-2-yl)oxazol-4-ylmethoxy]cyclohexylmethoxy}-2-methylpropionic acid] | 2 | 1100
CCc1oc(-c2cccc(C(F)(F)F)c2)nc1CO[C@H]1CCC[C@@H](COC(C)(C)C(=O)O)C1 [Example 5, 2-{(1R,3S)-3-[5-Ethyl-2-(3-trifluoromethylphenyl)oxazol-4-ylmethoxy]cyclo-hexylmethoxy}-2-methylpropionic acid] | 12 | 1500
Cc1oc(-c2ccc3ccccc3c2)nc1CO[C@H]1CCC[C@@H](COC(C)(C)C(=O)O)C1 [Example 7, 2-Methyl-2-{(1R,3S)-3-[5-methyl-2-(naphth-2-yl)oxazol-4-ylmethoxy]cyclo-hexylmethoxy}propionic acid] | 1.2 | 2600
COc1cccc(-c2nc(CO[C@H]3CCC[C@@H](COC(C)(C)C(=O)O)C3)c(C(C)C)o2)c1 [Example 9, 2-{(1R,3S)-3-[5-lsopropyl-2-(3-methoxypheny)oxazol-4-ylmethoxy]cyclo-hexylmethoxy}-2-methyl propionic acid] | 320 | 390
